Reference: US5470877A, “Uses of perillic acid methyl ester” (Wisconsin Alumni Research Foundation, priority 1994, dated 1995)

Assays:
[1] = test system: DMBA-induced rat mammary carcinomas; assay: Regression of DMBA-induced mammary carcinomas, pair-feeding study; assay type: in vivo, Wistar-Furth rat; settings: for Time to Regress (wks): primary carcinoma, footnote: Kaplan-Meier estimate of time when 25% regressed
Protocol: We used Wistar-Furth female rats for in vivo studies. Wistar-Furth female rats were obtained from Harlan Sprague-Dawley, Inc., (Madison, Wis.). All rats, arriving at 43-48 days of age, were housed at four rats per cage in wire-bottom metal cages and all were maintained with a light/dark cycle of 12 hours. Rats were provided Teklad Lab blox chow and acidified water ad libitum.
After one week of acclimation, the carcinogen DMBA was administered to the rats, which were 50-55 days old at this point. The DMBA was dissolved in a stock solution of 20 mg DMBA/ml sesame oil, heated and allowed to cool to room temperature before administration. DMBA (Eastman Kodak, Rochester, N.Y.) was given as a single gastric intubation of 50 mg DMBA/kg rat body weight.
In the pair-feeding study, a group of 70 mammals was treated with DMBA. Beginning four weeks post carcinogen administration, mammals were weighed and palpated weekly. Upon palpation of the first mammary carcinoma (diameter≥3 mm), mammals were randomly assigned to control or 2.5% (w/w) perillyl alcohol diet and pair-fed.
Perillyl alcohol (>96% pure by GC analysis, Aldrich, Milwaukee, Wis.) and Teklad 4% mouse/rat diet meal were thoroughly mixed and stored at -20° C. Fresh diets were made every 7-10 days. All mammals were provided fresh diet daily to minimize evaporation of the monoterpenes. For pair-feeding, the quantity of diet consumed by the monoterpene-fed mammals was measured every 24 hours and the assigned partner was pair-fed accordingly.
In the pair-feeding study, all palpable mammary carcinomas were classified as either "primary" tumors (i.e, the first tumor(s) palpated with a minimum diameter of 3 mm) or "secondary" tumors (i.e. a palpable tumor arising after initial diet assignment). At diet assignment, some mammals had more than one primary tumor. All carcinogen-exposed mammals not bearing a first palpable tumor by week 15 post-carcinogen were removed from the experiment. Complete regression of a tumor was defined as non-palpability for a minimum of three consecutive weeks. All mammals in the pair-feeding study were followed for a minimum of 10 weeks post-diet assignment for tumor growth or regression at primary tumor sites and all other mammary glands. The rats were necropsied if moribund. Complete necropsies were performed on all rats at the termination of the study. Greater than 95% of tumors remaining at the autopsy date were diagnosed as mammary carcinomas based on gross and histopathological criteria.

21-26 kDa proteins = assay: Protein isoprenylation inhibition in NIH3T3 cells (SDS-PAGE fluorography); assay type: cell-based, mouse
Protocol: "Isoprenylation" is the addition of a multiple of the 5 carbon isoprene unit to a protein. Our experiments in isoprenylation are reported at Crowell, et al. 1991, J. Biol. Chem. 266:17679-17685. To test whether a specific monoterpene affects isoprenylation of proteins in cells, […] were incubated with a radioactive isoprene precursor and 0-5 mM of the test monoterpene and then subjected to SDS-PAGE. Because they carried a radioactive label, isoprenylated proteins were visualized by fluorography. As a control, cells were incubated without the monoterpene.
Cells were harvested after trypsin treatment, washed twice with phosphate-buffered saline, suspended in electrophoresis sample buffer (Laemmli, U.K., 1970, Nature 227:680-685), and either analyzed immediately or stored at -20° C. Whole cell extracts were analyzed by SDS-PAGE on 16-cm×18-cm×0.75-mm gels by the method of Laemmli (supra). The acrylamide concentrations were 5% for the stacking gel and 12% for the separating gel. Gels were stained with Coomassie Brilliant Blue, equilibrated for 20 min in Amplify (Amersham Corp.) fluorographic reagent, dried under vacuum at 65° C., and exposed to preflashed Kodak X-Omat AR film as described by Laskey and Mills (1975, Eur. J. Biochem, 56:335-341). Some fluorograms were analyzed further by densitometry. Where indicated, gels were sliced, dissolved at 50° C. for 3 hours in 0.5 ml of water+0.5 ml of Solvable (Amersham), and then analyzed by scintillation spectrometry in 10 ml of Atom light (Amersham) mixture. Protein content was measured by the method of Lowry, et al. (1951, J. Biol. Chem. 193:265-275).
FIG. 1 depicts the structures of certain monoterpenes.
The degree of isoprenylation was evaluated by the amount of labeled protein present in the 21-26 kDa range, as evidenced by fluorography.

[2] = 10% limonene diet or 2.5% POH diet

## C=C(C)[C@@H]1CC=C(CO)CC1 [perillyl alcohol]
[1]; [2]
  Primary carcinoma regression (%): 81%
  Secondary carcinoma regression (%): 0%
  Secondary carcinoma regression (tumors regressed / tumors): 01/1
  Secondary carcinomas/rat: 0.04
[1]; after initial diet assignment
  development of secondary carcinomas: limited the development of secondary carcinomas
[1]
  Time to Regress (wks): 3.6 wks
[1]; listed as POH
  Time to Regress (wks): 3.6 ± 0.3 wks
[1]; to achieve these regression results
  amount of perillyl alcohol needed relative to limonene: 25%
21-26 kDa proteins; 1 mM, 21-26 kDa range
  ability to inhibit isoprenylation within test panel: greatest ability to inhibit isoprenylation
21-26 kDa proteins; all cell types examined
  inhibition of isoprenylation in all cases examined: inhibition of isoprenylation
